The first assay deals with male mdx mice. As to the kind of experiment: In vivo assay for functional response to muscle injury (eccentric contraction-induced muscle fatigue). Also noted: species or system mouse. To be noted: 7 months of age, PO 0.1, 1 and 10 mg/kg QD beginning 10 min prior to challenge, versus vehicle, FIG. 1. The text has this: Under anesthesia, the right hind limb of a mouse is restrained at the knee and the foot attached to a motorized footplate/force transducer. Needle electrodes are inserted into the upper limb, either side of the sciatic nerve and a current sufficient to elicit a maximal muscle contraction is applied. Muscle tension is produced by moving the footplate to lengthen the plantarflexor muscles while the limb is under maximal stimulation. This is repeated 60 times to fatigue the muscles of the lower limb. Anesthesia, limb immobilization and limb stimulation are then repeated at regular intervals to measure maximal isometric force in the recovering limb. 7 to 9 animals are tested for each test condition.
T1 sequence (O60760 whole entry): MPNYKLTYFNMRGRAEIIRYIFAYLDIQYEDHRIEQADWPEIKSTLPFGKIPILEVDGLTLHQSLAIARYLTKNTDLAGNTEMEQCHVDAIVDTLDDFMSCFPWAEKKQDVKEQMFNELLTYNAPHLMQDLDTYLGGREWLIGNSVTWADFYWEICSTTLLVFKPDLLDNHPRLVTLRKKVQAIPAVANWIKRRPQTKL
For `CC(C)(O)[C@H]1CC[C@H](NC(=O)c2cnc3nc(C4CC4)sc3c2)CC1` [Example 8], the “kinetics of recovery of maximal isometric torque after eccentric contraction challenge” value was “exhibited an acceleration in the kinetics of recovery”.

Another assay has as its target T1, hematopoietic prostaglandin D synthase (H-PGDS) (Homo sapiens, UniProt O60760).
T1 construct: Full length human H-PGDS cDNA (Invitrogen Ultimate ORF IOH13026) was amplified by PCR; 6-His (N); TEV protease cleavage site (N); made in house; host or cells: E. coli BL21 (DE3*), vector pET22b+
As to the kind of experiment: H-PGDS RapidFire High Throughput Mass Spectrometry Assay. In kind it is biochemical. The settings on record: conversion of PGH2 to PGD2 by human H-PGDS, 10 nM enzyme. As for the experimental part:
The H-PGDS RapidFire™ mass spectrometric assay monitors conversion of prostaglandin H2 (PGH2) to prostaglandin D2 (PGD2) by hematopoietic prostaglandin D synthase (H-PGDS). In the assay format described here, the substrate (PGH2) is formed in situ by the action of cyclooxygenase-2 on arachidonic acid. This first step is set up to be fast, and generates a burst of PGH2 at ˜10 μM. The PGH2 is then further converted to PGD2 by the H-PGDS enzyme. […] Plates are then read on the RapidFire™ high throughput solid phase extraction system (Agilent) which incorporates a solid phase extraction step coupled to a triple quadrupole mass spectrometer (AB SCIEX). Relative levels of PGD2 and PGF2α, which acts as a surrogate for substrate, are measured and a percent conversion calculated. Inhibitors are characterized as compounds which lower the conversion of PGH2 to PGD2.
Full length human H-PGDS cDNA (Invitrogen Ultimate ORF IOH13026) was amplified by PCR with the addition of a 5′ 6-His tag and TEV protease cleavage site. The PCR product was digested with NdeI and XhoI and ligated into pET22b+ (Merck Novagen®). Expression was carried out in E. coli strain BL21 (DE3*) using auto-induction Overnight Express™ Instant TB medium (Merck Novagen®) supplemented with 1% glycerol. The culture was first grown at 37° C. and the temperature was reduced to 25° C. when OD600 reached 2.0. Cells were harvested by centrifugation after a further 18 hours. 10 g of E. coli cell pellet was suspended to a total volume of 80 mL in lysis buffer (20 mM Tris-Cl pH 7.5, 300 mM NaCl, 20 mM imidazole, 5 mM β-mercaptoethanol, 10% glycerol). 1 mg/mL protease inhibitors (Protease Inhibitor Cocktail Set III, Merck Calbiochem®) and 1 mg/mL lysozyme were added to the cell suspension. The suspension was then sonicated for 5 min (Ultrasonic Processor VCX 750, Cole-Parmer Instrument Co.) with a micro probe (50% amplitude, 10 sec on/off) and then centrifuged at 100,000 g for 90 minutes (at 4° C.). The supernatant was loaded onto a Ni-NTA HiTrap column (5 mL, GE Healthcare, pre-equilibrated in lysis buffer). The column was washed with 10 column volumes of lysis buffer and eluted with lysis buffer containing 500 mM imidazole. The pooled protein peak fractions were concentrated using a 10 kDa centrifugal filter at 3500 g and 4° C. (Amicon Ultra-15 centrifugal filter unit with Ultracel-10 membrane from Millipore). Further purification of the concentrated protein was carried out using gel filtration chromatography on a HiLoad 26/600 Superdex75 preparative grade column (GE Healthcare Life Sciences) using 50 mM Tris pH 7.5, 50 mM NaCl, 1 mM dithiothreitol, 1 mM MgCl2. Fractions containing the protein were pooled, concentrated as described above, and stored at −80° C.
The full length human COX-2 gene (accession number L15326) was amplified by PCR to generate an EcoRI-Hindi 11 fragment containing an in-frame FLAG tag. This was subcloned into pFastBac 1 (Invitrogen). The COX-2 FLAG plasmid was recombined into the baculovirus genome according to the BAC-to-BAC protocol described by Invitrogen. Transfection into Spodoptera frugiperda (Sf9) insect cells was performed using Cellfectin (Invitrogen), according to the manufacturer's protocol. Super Sf9 cells were cultured in EX420 media (SAFC Biosciences) to a density of approximately 1.5×10^6 cells/mL within a wave bioreactor. Recombinant virus was added at a Multiplicity of Infection (MOI) of 5 and the culture was allowed to continue for 3 days. Cells were harvested using a continuous feed centrifuge run at 2500 g at a rate of approximately 2 L/min with cooling. The resultant cell slurry was re-centrifuged in pots (2500 g, 20 min, 4° C.) and the cell paste was stored at −80° C. 342 g of cell paste was re-suspended to a final volume of 1600 mL in a buffer of 20 mM Tris-Cl pH 7.4, 150 mM NaCl, 0.1 mM EDTA, 1.3% w/v n-octyl-β-D-glucopyranoside containing 20 Complete EDTA-free Protease Inhibitor Cocktail tablets (Roche Applied Science). […]
On to “N-(trans-4-(2-Hydroxypropan-2-yl)cyclohexyl)-2-((1S,2R)-2-methylcyclopropyl)thieno[3,2-b]pyridine-6-carboxamide and N-(trans-4-(2-hydroxypropan-2-yl)cyclohexyl)-2-((1R,2S)-2-methylcyclopropyl)thieno[3,2-b]pyridine-6-carboxamide [Example 10]”, for which the “Potency Range (mean pIC50)” value is given as “*** (*** = pIC50 7.1-8.0)”.

The assay is the same for the next values; noted with them: conversion of PGH2 to PGD2 by human H-PGDS, 10 nM enzyme; mean pIC50; read-out: Potency Range (mean pIC50) (converted).
With `CC(C)(O)[C@H]1CC[C@H](NC(=O)c2cnc3nc(C4CC4)sc3c2)CC1` [Example 8], the IC50 was 0.01 to 0.0794 µM.

As to `CC(C)(C)c1nc2ncc(C(=O)N[C@H]3CC[C@H](C(C)(C)O)CC3)cc2s1` [Example 27, 2-(tert-Butyl)-N-(trans-4-(2-hydroxypropan-2-yl)cyclohexyl)thiazolo[4,5-b]pyridine-6-carboxamide], the IC50 is 0.1 to 1 µM.

`CC(C)(O)[C@H]1CC[C@H](NC(=O)c2cnc3nc(N4CCC4)sc3c2)CC1` [Example 29, 2-(Azetidin-1-yl)-N-(trans-4-(2-hydroxypropan-2-yl)cyclohexyl)thiazolo[4,5-b]pyridine-6-carboxamide]: the IC50 is 0.1 to 1 µM.

For the molecule `CC(C)c1nc2ncc(C(=O)N[C@H]3CC[C@H](C(C)(C)O)CC3)cc2s1` [Example 30, N-(trans-4-(2-Hydroxypropan-2-yl)cyclohexyl)-2-isopropylthiazolo[4,5-b]pyridine-6-carboxamide], the IC50 is 0.1 to 1 µM.

With `Cn1nnnc1N1CCC(NC(=O)c2cnc3nc(C4CC4)sc3c2)CC1` [Example 31, 2-Cyclopropyl-N-(1-(1-methyl-1H-tetrazol-5-yl)piperidin-4-yl)thiazolo[4,5-b]pyridine-6-carboxamide], the IC50 was 0.1 to 1 µM.

In the case of `CC(C)(O)[C@H]1CC[C@H](NC(=O)c2cnc3nc(N4CCCC4)sc3c2)CC1` [Example 33, N-(trans-4-(2-Hydroxypropan-2-yl)cyclohexyl)-2-(pyrrolidin-1-yl)thiazolo[4,5-b]pyridine-6-carboxamide], the IC50 is 0.1 to 1 µM.

Take `C[C@H]1CCN1c1nc2ncc(C(=O)N[C@H]3CC[C@H](C(C)(C)O)CC3)cc2s1` [Example 34, N-(trans-4-(2-Hydroxypropan-2-yl)cyclohexyl)-2-((S)-2-methylazetidin-1-yl)thiazolo[4,5-b]pyridine-6-carboxamide]: the IC50 was 0.01 to 0.0794 µM.

Regarding `CN(c1nc2ncc(C(=O)N[C@H]3CC[C@H](C(C)(C)O)CC3)cc2s1)C1CC1` [Example 35, 2-(Cyclopropyl(methyl)amino)-N-(trans-4-(2-hydroxypropan-2-yl)cyclohexyl)thiazolo[4,5-b]pyridine-6-carboxamide], the IC50 is 0.1 to 1 µM.

For `CC(C)(O)[C@H]1CC[C@H](NC(=O)c2cnc3nc(N(C4CC4)C4CC4)sc3c2)CC1` [Example 36, 2-(Dicyclopropylamino)-N-(trans-4-(2-hydroxypropan-2-yl)cyclohexyl)thiazolo[4,5-b]pyridine-6-carboxamide], the IC50 was 1.26 to 10 µM.

Consider `CC(C)N(c1nc2ncc(C(=O)N[C@H]3CC[C@H](C(C)(C)O)CC3)cc2s1)C(C)C` [Example 37, 2-(Diisopropylamino)-N-(trans-4-(2-hydroxypropan-2-yl)cyclohexyl)thiazolo[4,5-b]pyridine-6-carboxamide], for which the IC50 was 1.26 to 10 µM.

Turning to `CN(c1nc2ncc(C(=O)N[C@H]3CC[C@H](C(C)(C)O)CC3)cc2s1)C(C)(C)C` [Example 38, 2-(tert-Butyl(methyl)amino)-N-(trans-4-(2-hydroxypropan-2-yl)cyclohexyl)thiazolo[4,5-b]pyridine-6-carboxamide], the IC50 was 0.1 to 1 µM.

For the molecule `CSc1nc2ncc(C(=O)N[C@H]3CC[C@H](C(C)(C)O)CC3)cc2s1` [Example 39, N-((trans)-4-(2-Hydroxypropan-2-yl)cyclohexyl)-2-(methylthio)thiazolo[4,5-b]pyridine-6-carboxamide], the IC50 is 0.01 to 0.0794 µM.

For the molecule `COc1nc2ncc(C(=O)N[C@H]3CC[C@H](C(C)(C)O)CC3)cc2s1` [Example 40, N-((trans)-4-(2-Hydroxypropan-2-yl)cyclohexyl)-2-methoxythiazolo[4,5-b]pyridine-6-carboxamide], the IC50 was 0.1 to 1 µM.

For the origin of these results see patent publication US20210139507A1, “FUSED PYRIDINES WHICH ACT AS INHIBITORS OF H PGDS” (GlaxoSmithKline Intellectual Property Development Limited, priority 2017, published 2021).
